Test systems include HCC-2998 colon; LOX IMVI melanoma; NCI-H226 lung; OVCAR-8 ovarian; SK-OV-3 ovarian; A498 renal; COLO 205 colon; SF-295 CNS; UACC-257 melanoma; SNB-75 CNS.
Common to all, as to assay: growth of human tumour cells (NCI), 48 h

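Dose response: 5 concentrations. Exposure: 48 h. Format: 96-well plates. Endpoint: linear interpolation; highest concentration if not reached. Here, GI50 denotes the concentration required for 50% inhibition of growth. TGI denotes the concentration required for complete inhibition of growth.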

Turning to `COc1ccc(/C=C2\CN(C(=O)C(Cl)Cl)C/C(=C\c3ccc(OC)cc3)C2=O)cc1`, the GI50 was 1.02 µM in the test with HCC-2998 colon; 0.251 µM in the test on LOX IMVI melanoma; 2.47 µM in the test with NCI-H226 lung; 0.881 µM in the test with OVCAR-8 ovarian; 4.2 µM in the test with SK-OV-3 ovarian. Moreover, the TGI is 2.2 µM in the test with HCC-2998 colon; 0.766 µM in the test on LOX IMVI melanoma; 7.65 µM with NCI-H226 lung; more than 100 µM in the test on OVCAR-8 ovarian; more than 100 µM in the test with SK-OV-3 ovarian.
For `CSC(=NC#N)S/C=C/C(=O)c1ccccc1`, the GI50 is 61 µM with A498 renal; 35.2 µM in the test on COLO 205 colon; 59.4 µM with HCC-2998 colon; 31 µM in the test on LOX IMVI melanoma; 38.1 µM in the test on OVCAR-8 ovarian; 30.5 µM with SF-295 CNS. Further, the GI50 in the test with SK-OV-3 ovarian was more than 100 µM; with UACC-257 melanoma, 45.4 µM. Besides, the TGI with A498 renal, in the test on COLO 205 colon, with HCC-2998 colon, with LOX IMVI melanoma, in the test with OVCAR-8 ovarian and in the test with SF-295 CNS was more than 100 µM throughout. Besides, the TGI in the test with SK-OV-3 ovarian and in the test on UACC-257 melanoma was more than 100 µM each time.
For the compound `O=c1c2ccc(S(=O)(=O)c3ccc4c(=O)n5c6ccccc6nc5c5cccc3c45)c3cccc(c32)c2nc3ccccc3n12`, the TGI with COLO 205 colon is more than 100 µM; in the test on HCC-2998 colon, more than 100 µM; in the test on LOX IMVI melanoma, more than 100 µM; in the test on NCI-H226 lung, more than 100 µM; in the test with OVCAR-8 ovarian it was more than 100 µM; with SF-295 CNS, 53.2 µM. Besides, the TGI is 31.6 µM in the test on SK-OV-3 ovarian and more than 100 µM in the test on UACC-257 melanoma.
Take `O=S(=O)([O-])c1ccc(N=Cc2ccccc2[O-])cc1.O=S(=O)([O-])c1ccc(N=Cc2ccccc2[O-])cc1.[Co+2]`: the GI50 with COLO 205 colon was more than 100 µM; with HCC-2998 colon it was 79.1 µM; in the test on NCI-H226 lung it was more than 100 µM; with OVCAR-8 ovarian, more than 100 µM; in the test with SF-295 CNS, more than 100 µM; in the test on SK-OV-3 ovarian it was 36.6 µM. The GI50 in the test on SNB-75 CNS and with UACC-257 melanoma was more than 100 µM in each case. Moreover, the TGI in the test on COLO 205 colon, in the test on HCC-2998 colon, in the test with NCI-H226 lung, with OVCAR-8 ovarian, in the test with SF-295 CNS and in the test on SK-OV-3 ovarian was more than 100 µM in each case. In addition, the TGI in the test with SNB-75 CNS and in the test with UACC-257 melanoma was more than 100 µM each time.
For the compound `COC(OC)c1cc2c(cc1C=O)OCO2`, the TGI is more than 100 µM with HCC-2998 colon; more than 100 µM in the test with NCI-H226 lung; more than 100 µM with OVCAR-8 ovarian; more than 100 µM with SK-OV-3 ovarian; 54.7 µM in the test with SNB-75 CNS; more than 100 µM in the test with UACC-257 melanoma.
Take `COc1ccc(/C(=N\NC(=O)NN)C(c2ccc(OC)cc2)C2(O)C(=O)Nc3c(Cl)cc(Cl)cc32)cc1` (stereo unspecified): the TGI in the test with COLO 205 colon, with HCC-2998 colon, in the test on LOX IMVI melanoma, in the test with NCI-H226 lung, in the test on OVCAR-8 ovarian and in the test on SF-295 CNS was more than 100 µM throughout. For the same compound, the TGI in the test with SNB-75 CNS and in the test on UACC-257 melanoma was more than 100 µM in each case.
For `Cc1c(O)c(N=Nc2nc3ccccc3s2)c2ccccc2c1O`, the GI50 in the test with COLO 205 colon was 21.4 µM; in the test on HCC-2998 colon, more than 50 µM; with LOX IMVI melanoma, 29.7 µM; with OVCAR-8 ovarian it was 19.7 µM; in the test on SF-295 CNS, 24.7 µM; in the test with SK-OV-3 ovarian, 30.1 µM. In addition, the GI50 with UACC-257 melanoma is 14.7 µM. Also, the TGI with COLO 205 colon, in the test with HCC-2998 colon, in the test on LOX IMVI melanoma, in the test on OVCAR-8 ovarian, in the test with SF-295 CNS and in the test on SK-OV-3 ovarian was more than 50 µM in each case. The same compound gave a TGI in the test on UACC-257 melanoma of 36.1 µM.
`Cc1ccc(-c2nc3ccccc3c(=O)n2NCC2(O)OCC(O)C(O)C2O)cc1` (stereo unspecified): the TGI with A498 renal, in the test on COLO 205 colon, with LOX IMVI melanoma, in the test with OVCAR-8 ovarian, in the test on SF-295 CNS and in the test on SK-OV-3 ovarian was more than 100 µM in each case. Also, the TGI with SNB-75 CNS and in the test with UACC-257 melanoma was more than 100 µM in each case.
`COC(=O)C1=C(O)[C@H](C(=O)OC)C2(O)C(C(=O)OC)[C@H](c3ccc(OC(=O)C(C)c4ccccc4)cc3)C[C@@H]1[C@@H]2C(=O)OC` (stereo partly specified): the GI50 is 13.7 µM with COLO 205 colon; 10.7 µM in the test with HCC-2998 colon; 6.85 µM in the test with LOX IMVI melanoma; 15 µM in the test with OVCAR-8 ovarian; 16.1 µM in the test with SF-295 CNS; 33.3 µM in the test with SK-OV-3 ovarian. Besides, the GI50 in the test on SNB-75 CNS is 16.6 µM; in the test on UACC-257 melanoma, 41.1 µM. Moreover, the TGI was 36.3 µM with COLO 205 colon; 20.6 µM in the test on HCC-2998 colon; 16.2 µM with LOX IMVI melanoma; more than 50 µM in the test with OVCAR-8 ovarian; more than 50 µM in the test on SF-295 CNS; more than 50 µM in the test on SK-OV-3 ovarian. Further, the TGI with SNB-75 CNS and in the test with UACC-257 melanoma was more than 50 µM in each case.
With `O=C1CSC(=S)N1c1ccco1`, the TGI in the test on A498 renal, in the test on COLO 205 colon, with LOX IMVI melanoma, in the test with NCI-H226 lung, with OVCAR-8 ovarian and in the test on SF-295 CNS was more than 100 µM throughout. The TGI in the test with SK-OV-3 ovarian and in the test on UACC-257 melanoma was more than 100 µM each time.
On to `N#CC(/C(CCC(=O)Nc1ccc(Cl)cc1)=N/NC(=O)c1cc2ccccc2cc1O)c1ccccc1` (stereo unspecified), for which the TGI was more than 100 µM in the test with COLO 205 colon; more than 100 µM in the test with HCC-2998 colon; 73.1 µM in the test on LOX IMVI melanoma; more than 100 µM in the test on NCI-H226 lung; more than 100 µM with OVCAR-8 ovarian; more than 100 µM in the test with SF-295 CNS. The TGI with SNB-75 CNS and in the test with UACC-257 melanoma was more than 100 µM throughout.
Take `CCCCN1CCCC[C@@H]1C(=O)N[C@H](C(=O)N(C)[C@H](C[C@@H](OC(C)=O)c1nc(C(=O)NC2CCC(C(=O)OC)CC2)cs1)C(C)C)C(C)C` (stereo partly specified): the GI50 in the test with A498 renal is 6.35 µM; with COLO 205 colon it was 1.26 µM; with HCC-2998 colon it was 4.02 µM; with LOX IMVI melanoma, 1.36 µM; in the test with NCI-H226 lung it was 3.84 µM; with OVCAR-8 ovarian it was 2.1 µM. Besides, the figures for the GI50 in the test on SF-295 CNS, in the test with SK-OV-3 ovarian and with UACC-257 melanoma were 1.01 µM, 2.14 µM and 2.42 µM, respectively. Also, the TGI in the test on A498 renal was more than 25 µM; in the test with COLO 205 colon, 11.5 µM; with HCC-2998 colon, more than 25 µM; with LOX IMVI melanoma, more than 25 µM; with NCI-H226 lung, more than 25 µM; in the test with OVCAR-8 ovarian, more than 25 µM. For the same compound, the TGI is 8.06 µM in the test with SF-295 CNS, more than 25 µM in the test on SK-OV-3 ovarian and more than 25 µM in the test on UACC-257 melanoma.

(Values after PubChem BioAssay (NCI).)
